Laboratory results published in patent US7956065B2, “Pharmaceutical compounds” (Biovail Laboratories International (Barbados) S.R.L., priority 2008, dated 2011).
“Also recorded” adds a separate entry of the source. Counter-ions that a name gives are not always drawn. Like-named read-outs stand apart in the source and are kept apart here.

Tests used:
[1] = system: sub-chronic PCP-induced deficits in working memory in female hooded-Lister rats; assay: Novel object recognition (NOR) task after sub-chronic PCP treatment; assay type: in vivo, rat
Text: One of the symptoms of dementia is the progressive development of a cognitive deficit. Certain pre-clinical tests allow the observation of relatively subtle cognitive deficits in the rat. The cognitive deficits observed are seen in behaviours such as working memory deficits which may be measured by recognition tasks such as the novel object recognition (NOR) paradigm. A recognition memory task allows the comparison between presented stimuli and previously stored information. Ennaceur & Delacour, Behav. Brain Res. 31: 47-59 (1988) described the NOR test in rats which was based on the differential exploration of familiar and new objects. The NOR test is a non-rewarded, ethologically relevant paradigm based on the spontaneous exploratory behaviour of rats which measures working memory. Each session consists of two trials. In the first trial, the rats are exposed to two identical objects in an open field. During the second trial, rats are exposed to two dissimilar objects, one familiar object from the first trial and one new object. Object recognition in rats can be measured as the difference in time spent exploring the familiar and the new object. […] The duration of each trial is also important as a preference for the novel object only lasts during the first 1 or 2 minutes, after which time preference diminishes as both objects become familiar and are explored equally.
The abovementioned rodent model was used to assess the effects of the Isomer A on sub-chronic PCP-induced deficits in working memory using the novel object recognition (NOR) paradigm. The working hypothesis was that both acute and sub-chronic treatment with Isomer A will attenuate the selective working memory deficit induced by sub-chronic PCP as measured in the NOR test paradigm.
Rats are allowed to habituate to the empty test box and the behavioural test room environment for 1 hour on day 1. Prior to behavioural testing on day 2 rats are given a further 3 minutes habituation.
Following the 3 minute habituation period, the rats are given two 3 minute trials (T1 and T2) which are separated by a 1 minute inter-trial interval in the home cage during which the objects are changed.
In this trial, the animals are allowed to explore two identical objects (A1 and A2) for 3 minutes.
In this trial, the animals explore a familiar object (A) from T1 and a novel object (B) for 3 minutes. The familiar object presented during T2 is a duplicate of the object presented in T1 in order to avoid any olfactory trails.
The object exploration is defined by animals licking, sniffing or touching the object with the forepaws whilst sniffing, but not leaning against, turning around, standing or sitting on the object. The exploration time (s) of each object (A1, A2, A and B) in each trial are recorded using two stopwatches and the following factors are calculated: • Total exploration time of both objects in the acquisition trial(s). • Total exploration time of both objects in the retention trial(s). • Habituation of exploratory activity. The LMA includes the exploration time, as measured by the number of lines crossed, for both the trials. • Discrimination index, which is calculated as shown below; (time spent exploring novel object−time spent exploring familiar object)÷total time spent in exploring the objects
Behaviour in all trials was recorded on video for subsequent blind scoring.
50 female hooded-Lister rats (Harlan, UK) were used as subjects for these studies. Rats were housed in groups of 5 under standard laboratory conditions under a 12 hr light:dark cycle, lights on at 0700 hr. All testing was carried out in the light phase. Food and water were freely provided. All experiments were conducted in accordance with the Animals Scientific Procedures Act, U.K. 1986 and were approved by the University of Bradford ethical review panel.
Rats were randomly assigned to two treatment groups and treated with vehicle, n=10 (distilled water, ip) or PCP, n=40 (2 mg/kg, ip) twice daily for 7 days. […]

[2] = system: PCP-induced cognitive deficit in the retention phase of the NOR task in female rats; conditions: cited from earlier work; for cognitive deficit in the retention phase of the NOR task: female rats

In the case of `c1ccc(C2(N3CCCCC3)CCCCC2)cc1` [PCP, Phencyclidine hydrochloride], the “discrimination index (DI) after sub-chronic PCP treatment” value ([1]; PCP 2 mg/kg i.p. twice daily for seven days, did not reach statistical significance, FIG. 3) is given as “induced a reduction in the discrimination index”, the “cognitive deficit in the retention phase of the NOR task” value ([2]; acute PCP 0.5-2.0 mg/kg ip) is given as “produce a selective cognitive deficit” and the “cognitive deficit in the retention phase of the NOR task” value ([2]; sub-chronic PCP 2 mg/kg i.p. twice daily for 7 days followed by 7 days drug-free period) is given as “produce a selective cognitive deficit”.

For `O=C(CCCN1CCC(O)(c2ccc(Cl)cc2)CC1)c1ccc(F)cc1` [haloperidol], the “improvement of deficit induced by sub-chronic PCP in NOR paradigm” value ([2]; haloperidol 0.05-0.075 mg/kg) is listed as “not”.

In the case of `COc1cc2c(cc1OC)[C@@H]1C[C@@H](O)[C@H](CC(C)C)CN1CC2` (single isomer, unassigned) [Isomer A], the “sedation (observation of the behaviour of the rats)” value ([1]; Isomer A 30 mg/kg p.o.) was “did not appear sedated”, the “improvement of PCP-induced working memory deficit in retention phase of NOR task, statistical significance” value ([1]; Isomer A 30 mg/kg p.o. (highest dose), FIG. 2) was “significant at the highest dose” and the “locomotor activity in the test arena (number of lines crossed, T1 and T2)” value ([1]; Isomer A 30 mg/kg p.o., compared with vehicle control group, FIG. 4) was “significant effect to reduce locomotor activity”. The “discrimination index (DI) in sub-chronic PCP treated rats” value ([1]; Isomer A 30 mg/kg p.o., did not reach statistical significance, FIG. 3) was “improved”, the “exploration of two identical objects in the acquisition phase (T1)” value ([1]; Isomer A 3.0-30 mg/kg p.o., FIG. 1) was “no effect” and the “attenuation of sub-chronic PCP-induced deficit in retention trial (exploration time of familiar vs novel object)” value ([1]; acute Isomer A 3-30 mg/kg p.o., 30 min before testing, sub-chronic PCP 2 mg/kg i.p. twice daily for 7 days then 7 days washout, FIG. 2) was “has efficacy to attenuate the sub-chronic PCP-induced deficit; also recorded: selective for the retention phase of the NOR task; also recorded: counteracted the effects of sub-chronic administration of phencyclidine hydrochloride (PCP)”.

For `Cc1nc2n(c(=O)c1CCN1CCC(c3noc4cc(F)ccc34)CC1)CCCC2` [risperidone, reference compound], the “attenuation of sub-chronic PCP-induced deficit in retention trial” value ([1]; risperidone 0.2 mg/kg i.p., 30 min before testing, FIG. 2) was “attenuate the sub-chronic PCP-induced deficit” and the “discrimination index (DI) in sub-chronic PCP treated rats” value ([1]; risperidone 0.2 mg/kg i.p., did not reach statistical significance, FIG. 3) was “improved”.
